Source: patent publication US20230151034A1 (COCRYSTAL PHARMA, INC., priority 2020, published 2023)

Target: Norwalk GGI.1 Norovirus protease (Norovirus, UniProt Q83883)
Assay: Noro-Norwalk FRET protease assay (Norwalk GGI.1)
Type: biochemical, Norwalk virus
Details: Table C; FRET protease assay; read-out: Norwalk GGI.1 IC50
Experimental: (§1) Viral protease assays: The antiviral activities of inhibitors were determined by FRET (Fluorescence Resonance Energy Transfer) assay. Purified viral protease was incubated with the protease substrate peptide (Edans-DFHLQ/GP-Dabcyl) and inhibitor, and IC50 values were subsequently determined by the fluorescence signals.
The Noro-Norwalk FRET protease assay was performed in 50 mM HEPES-Na pH 8, 50 mM NaCl, 0.4 mM EDTA, 4% glycerol, and 6 mM DTT. A self-quenching peptide substrate [5-FAM]-[…]-[TAMRA] was custom synthesized by Anaspec. Compounds were diluted in 3-fold serial dilutions to final concentrations of 200 μM to 10.2 nM. Noro protease was added to a final concentration of 1-7 μM, depending on the enzyme activity level, and the peptide substrate was added to a final concentration of 10 μM. The assay was incubated 90 minutes at 37° C. and read in a Perkin Elmer Envision with excitation at 473 nm and emission measurement at 519 nm.

Chain of Norwalk GGI.1 Norovirus protease (Q83883 1101-1281): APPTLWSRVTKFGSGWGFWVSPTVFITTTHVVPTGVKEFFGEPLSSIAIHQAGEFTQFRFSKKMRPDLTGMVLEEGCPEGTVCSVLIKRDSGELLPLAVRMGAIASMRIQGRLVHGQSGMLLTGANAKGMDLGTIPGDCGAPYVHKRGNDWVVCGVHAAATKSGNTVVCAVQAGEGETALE

First: CN(CCc1ccncc1)C(=O)CC[C@@H](C=O)NC(=O)[C@H](CC1CCCCC1)NC(=O)OCc1cccc(Cl)c1 [Compound A68, 3-Chlorobenzyl ((S)-3-cyclohexyl-1-(((S)-5-(methyl (2-(pyridin-4-yl)ethyl)amino)-1,5-dioxopentan-2-yl)amino)-1-oxopropan-2-yl) carbamate]
Second: O=C[C@H](CCC(=O)N1CCOc2ccccc2C1)NC(=O)[C@H](CC1CCCCC1)NC(=O)OCc1cccc(Cl)c1 [Compound A57, 3-Chlorobenzyl ((S)-3-cyclohexyl-1-(((S)-5-(2,3-dihydrobenzo[f][1,4]oxazepin-4(5H)-yl)-1,5-dioxopentan-2-yl)amino)-1-oxopropan-2-yl)carbamate]
The IC50 of the first is 2-fold higher: 4.6 µM for the first, 2.3 µM for the second.

With `O=C[C@H](CCC(=O)N1CCOCc2ccccc21)NC(=O)[C@H](CC1CCCCC1)NC(=O)OCc1cccc(Cl)c1` [Compound A108, 3-Chlorobenzyl ((S)-3-cyclohexyl-1-(((S)-5-(2,3-dihydrobenzo[e][1,4]oxazepin-1(5H)-yl)-1,5-dioxopentan-2-yl)amino)-1-oxopropan-2-yl)carbamate] the IC50 was 8 µM.

Target: SARS2 protease (Severe acute respiratory syndrome coronavirus 2, UniProt P0DTD1)
Assay: SARS-CoV-2 protease inhibition assay (SARS2 FRET protease assay)
Type: biochemical
Details: Table E; SARS-CoV-2 protease inhibition; read-out: IC50
Experimental: as §1
The SARS2 FRET protease assay was performed in 20 mM HEPES-Na pH 7, 120 mM NaCl, 0.4 mM EDTA, 0.01% Triton, 5% glycerol, and 4 mM DTT. A self-quenching peptide substrate 5-FAM-TSA VLQ SGF RKK (5TAMRA)-NH2 was custom synthesized by Anaspec. Compounds were diluted in 3-fold serial dilutions to final concentrations of 20 μM to 1.0 nM. SARS2 protease was added to a final concentration of 25 nM, depending on the enzyme activity level, and the peptide substrate was added to a final concentration of 1.3 μM. The assay was incubated 30 minutes at 30° C. and read in a Perkin Elmer Envision with excitation at 473 nm and emission measurement at 519 nm.

`CCCCCCCC1CCCCCCCC(C(=O)N(C)C)CC(C(=O)N(C)OC)NC(=O)[C@H](CC(C)C)NC1=O` (stereo in doubt) [Compound B9, (2S,5S)-15-heptyl-2-isobutyl-N^5-methoxy-N^5,N^7,N^7-trimethyl-3,16-dioxo-1,4-diazacyclohexadecane-5,7-dicarboxamide] and `CCCCCCCC1CCCC/C=C/CC(C(=O)N(C)C)CC(C=O)NC(=O)[C@H](CC(C)C)NC1=O` (stereo in doubt) [Compound B7, (2S,5S,E)-5-formyl-15-heptyl-2-isobutyl-N,N-dimethyl-3,16-dioxo-1,4-diazacyclohexadec-9-ene-7-carboxamide] cannot be ordered by IC50: greater than 200 µM for the first, greater than 200 µM for the second.

`CCOP(=O)(OCC)C(O)[C@H](CCC(=O)N1CCCC(c2ccccc2)C1)NC(=O)[C@H](CC1CCCCC1)NC(=O)OCc1cccc(Cl)c1` (stereo partly drawn) [Compound A106, 3-Chlorobenzyl ((2S)-3-cyclohexyl-1-(((2S)-1-(diethoxyphosphoryl)-1-hydroxy-5-oxo-5-(3-phenylpiperidin-1-yl)pentan-2-yl)amino)-1-oxopropan-2-yl)carbamate] and `CCOP(=O)(OCC)C(O)[C@H](CCC(=O)N1CCCCc2ccccc21)NC(=O)[C@H](CC1CCCCC1)NC(=O)OCc1cccc(Cl)c1` (stereo partly drawn) [Compound A55, 3-Chlorobenzyl ((2S)-3-cyclohexyl-1-(((2S)-1-(diethoxyphosphoryl)-1-hydroxy-5-oxo-5-(2,3,4,5-tetrahydro-1H-benzo[b]azepin-1-yl)pentan-2-yl)amino)-1-oxopropan-2-yl)carbamate] cannot be ordered by IC50: greater than 200 µM for the first, greater than 200 µM for the second.

`CCNC(=O)OCCN(C)C(=O)CC[C@H](NC(=O)[C@H](CC1CCCCC1)NC(=O)OCc1cccc(Cl)c1)C(=O)N(C)OC` [Compound A21, 3-Chlorobenzyl ((12S,15S)-16-cyclohexyl-12-(methoxy(methyl)carbamoyl)-8-methyl-4,9,14-trioxo-5-oxa-3,8,13-triazahexadecan-15-yl)carbamate] and `CCOCCOCCN(C)C(=O)CC[C@H](NC(=O)[C@H](CC1CCCCC1)NC(=O)OCc1cccc(Cl)c1)C(=O)N(C)OC` [Compound A20, 3-Chlorobenzyl ((13S,16S)-17-cyclohexyl-13-(methoxy(methyl)carbamoyl)-9-methyl-10,15-dioxo-3,6-dioxa-9,14-diazaheptadecan-16-yl)carbamate] cannot be ordered by IC50: greater than 200 µM for the first, greater than 200 µM for the second.

Going from `CC(C)C[C@@H]1NC(=O)OC(Cc2ccccc2)CCCCCC(C(=O)N(C)C)CC(C=O)NC1=O` (stereo in doubt) [Compound B44, (4S,7S)-15-benzyl-7-formyl-4-isobutyl-N,N-dimethyl-2,5-dioxo-1-oxa-3,6-diazacyclopentadecane-9-carboxamide] to `CCOP(=O)(OCC)C(O)[C@@H]1CC(C(=O)N(C)C)CCCCCC(Cc2ccccc2)OC(=O)N[C@@H](CC(C)C)C(=O)N1` (stereo partly drawn) [Compound B45, Diethyl (((4S,7S)-15-benzyl-9-(dimethylcarbamoyl)-4-isobutyl-2,5-dioxo-1-oxa-3,6-diazacyclopentadecan-7-yl)(hydroxy)methyl)phosphonate], the IC50 rises from 185 µM to greater than 200 µM. The first is the more potent here.

`CCCCCCCC1CC/C=C/CC(C(=O)NC)C[C@@H](C(=O)N(C)OC)NC(=O)C(CC(C)C)NC(=O)O1` (single isomer, unassigned) [Compound B32] and `CCOP(=O)(OCC)[C@H](O)[C@@H]1CC(C(=O)N(C)Cc2ccc(OC)cc2OC)C/C=C/CCC(Cc2ccccc2)OC(=O)N[C@@H](CC(C)C)C(=O)N1` (stereo partly drawn) [Compound B28, Diethyl ((1S)-((4S,7S,E)-15-benzyl-9-((2,4-dimethoxybenzyl)(methyl)carbamoyl)-4-isobutyl-2,5-dioxo-1-oxa-3,6-diazacyclopentadec-11-en-7-yl)(hydroxy)methyl)phosphonate] cannot be ordered by IC50: greater than 200 µM for the first, greater than 200 µM for the second.

Compared with `CCNC(=O)CN(C)C(=O)CC[C@H](NC(=O)[C@H](CC1CCCCC1)NC(=O)OCc1cccc(Cl)c1)C(O)P(=O)(OCC)OCC` (stereo partly drawn) [Compound A17, 3-Chlorobenzyl ((2S)-3-cyclohexyl-1-(((2S)-1-(diethoxyphosphoryl)-5-((2-(ethylamino)-2-oxoethyl) (methyl)amino)-1-hydroxy-5-oxopentan-2-yl)amino)-1-oxopropan-2-yl) carbamate], `CCOC(=O)NCCN(C)C(=O)CC[C@H](NC(=O)[C@H](CC1CCCCC1)NC(=O)OCc1cccc(Cl)c1)C(O)P(=O)(OCC)OCC` (stereo partly drawn) [Compound A31, 3-Chlorobenzyl ((12S,15S)-16-cyclohexyl-12-((diethoxyphosphoryl)(hydroxy)methyl)-8-methyl-4,9,14-trioxo-3-oxa-5,8,13-triazahexadecan-15-yl)carbamate] is 3.7-fold lower in IC50: 169 µM for the first, 46 µM for the second.

`CCCCCCCCC(=O)N[C@@H](CC(C)C)C1=NC(CCC(=O)NC)CO1` (stereo partly drawn) [Compound A112, N-((1 S)-3-methyl-1-(4-(3-(methylamino)-3-oxopropyl)-4,5-dihydrooxazol-2-yl)butyl)nonanamide] and `CCCCCCCC1CC/C=C/CC(C(=O)NC)C[C@@H](C(=O)N(C)OC)NC(=O)C(CC(C)C)NC(=O)O1` (single isomer, unassigned) [Compound B33] cannot be ordered by IC50: greater than 200 µM for the first, greater than 200 µM for the second.

First: CCNC(=O)OCCN(C)C(=O)CC[C@@H](CO)NC(=O)[C@H](CC1CCCCC1)NC(=O)OCc1cccc(Cl)c1 [Compound A101, 3-Chlorobenzyl ((12S,15S)-16-cyclohexyl-12-(hydroxymethyl)-8-methyl-4,9,14-trioxo-5-oxa-3,8,13-triazahexadecan-15-yl)carbamate]
Second: CN(CCc1ccccc1)C(=O)CC[C@@H](CO)NC(=O)[C@H](CC1CCCCC1)NC(=O)OCc1cccc(Cl)c1 [Compound A26, 3-chlorobenzyl ((S)-3-cyclohexyl-1-(((S)-1-hydroxy-5-(methyl(phenethyl)amino)-5-oxopentan-2-yl)amino)-1-oxopropan-2-yl)carbamate]
The IC50 of the first is higher: greater than 200 µM for the first, 14.7 µM for the second. The second is the more potent here.

`CCOP(=O)(OCC)C(O)[C@H](CC(C)C(=O)N(C)CCc1ccccc1)NC(=O)[C@H](CC1CCCCC1)NC(=O)OCc1cccc(Cl)c1` (stereo partly drawn) [Compound A104, 3-Chlorobenzyl ((2S)-3-cyclohexyl-1-(((2S)-1-(diethoxyphosphoryl)-1-hydroxy-4-methyl-5-(methyl (phenethyl)amino)-5-oxopentan-2-yl)amino)-1-oxopropan-2-yl)carbamate] and `CCS(=O)(=O)NCCN(C)C(=O)CC[C@H](NC(=O)[C@H](CC1CCCCC1)NC(=O)OCc1cccc(Cl)c1)C(=O)N(C)OC` (stereo in doubt) [Compound A29, 3-Chlorobenzyl ((S)-3-cyclohexyl-1-(((S)-5-((2-(ethylsulfonamido)ethyl)(methyl)amino)-1-(methoxy(methyl)amino)-1,5-dioxopentan-2-yl)amino)-1-oxopropan-2-yl)carbamate] cannot be ordered by IC50: greater than 200 µM for the first, greater than 200 µM for the second.

Compared with `CCOP(=O)(OCC)C(O)[C@@H]1CC2(CC=CCCCC(Cc3ccccc3)C(=O)N[C@@H](CC(C)C)C(=O)N1)CCNC2=O` (stereo partly drawn) [Compound B23, Diethyl (((7S,10S)-13-benzyl-10-isobutyl-1,9,12-trioxo-2,8,11-triazaspiro[4.14]nonadec-17-en-7-yl)(hydroxy)methyl)phosphonate], `CC(C)C[C@@H]1NC(=O)C(Cc2ccccc2)CCCC/C=C/CC2CC(NC1=O)C(O)N(C)C2=O` (stereo partly drawn) [Compound B21, (4S,E)-7-benzyl-18-hydroxy-4-isobutyl-17-methyl-2,5,17-triazabicyclo[13.3.1]nonadec-12-ene-3,6,16-trione] is 1.9-fold higher in IC50: 46.5 µM for the first, 89.8 µM for the second.

`CCCCCCCC1CC/C=C/CC(C(=O)NC)C[C@@H](C(=O)N(C)OC)NC(=O)C(CC(C)C)NC(=O)O1` (single isomer, unassigned) [Compound B36] gave an IC50 greater than 200 µM.

Target: HuNV GGII.4 Norovirus protease (Norovirus GII.4 (human norovirus genogroup II genotype 4), UniProt P54634)
Assay: Norovirus protease FRET assay (HuNV GGII.4)
Type: biochemical
Details: Table C; FRET protease assay; read-out: HuNV GGII.4 IC50

Chain of HuNV GGII.4 Norovirus protease (P54634 1009-1189): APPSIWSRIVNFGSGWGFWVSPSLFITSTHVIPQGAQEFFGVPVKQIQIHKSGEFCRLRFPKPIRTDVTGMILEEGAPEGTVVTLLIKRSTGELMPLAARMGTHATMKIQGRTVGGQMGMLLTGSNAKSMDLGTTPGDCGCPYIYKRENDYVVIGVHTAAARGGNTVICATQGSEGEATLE

Compared with `CN(CCc1ccncc1)C(=O)CC[C@@H](C=O)NC(=O)[C@H](CC1CCCCC1)NC(=O)OCc1cccc(Cl)c1` [Compound A68, 3-Chlorobenzyl ((S)-3-cyclohexyl-1-(((S)-5-(methyl (2-(pyridin-4-yl)ethyl)amino)-1,5-dioxopentan-2-yl)amino)-1-oxopropan-2-yl) carbamate], `O=C[C@H](CCC(=O)N1CCOc2ccccc2C1)NC(=O)[C@H](CC1CCCCC1)NC(=O)OCc1cccc(Cl)c1` [Compound A57, 3-Chlorobenzyl ((S)-3-cyclohexyl-1-(((S)-5-(2,3-dihydrobenzo[f][1,4]oxazepin-4(5H)-yl)-1,5-dioxopentan-2-yl)amino)-1-oxopropan-2-yl)carbamate] is 6.4-fold lower in IC50: 16.7 µM for the first, 2.6 µM for the second. The second is the more potent here.

Molecule `O=C[C@H](CCC(=O)N1CCOCc2ccccc21)NC(=O)[C@H](CC1CCCCC1)NC(=O)OCc1cccc(Cl)c1` [Compound A108, 3-Chlorobenzyl ((S)-3-cyclohexyl-1-(((S)-5-(2,3-dihydrobenzo[e][1,4]oxazepin-1(5H)-yl)-1,5-dioxopentan-2-yl)amino)-1-oxopropan-2-yl)carbamate] has an IC50 of 13.4 µM.
